Key:
[1] = target: human recombinant PAK1-KD protein (Homo sapiens, UniProt Q13153); test: PAK1-KD (Kinase Domain) IC50 Zlyte Assay (FRET peptide substrate phosphorylation); details: Z'-LYTE, Biological Example 1
[2] = test system: group I PAKs in EBC1 cells (MEK1 phosphorylation at S298); test: Cellular PAK IC50 Assay: MEK1 phosphorylation at S298 by HTRF; type: cell-based; details: Homo sapiens, EBC-1, 2 h treatment, media containing 0.1% FBS, phospho-MEK1 (S298) HTRF
Method: Cellular PAK IC50 Assay Protocol
Group I PAKs (PAK1-3) are activated upon binding to the Rho GTPases, Rac1 and Cdc42. Activated group I PAKs phosphorylate MEK1 at Serine 298 (S298), one of the two sites in the catalytic domain that is important for stable association between Raf and MEK1 and subsequent MAPK activation. The inhibition of group I PAKs in EBC1 cells is assessed by detecting changes in the level of MEK1 phosphorylation at S298 using homogenous time-resolved fluorescence (HTRF). Inhibitory activity was estimated by treating 2×10^4 EBC1 cells for 2 h with PAK inhibitors in media containing 0.1% FBS. Following inhibitor treatment, cells were lysed with 25 μL of 1× cellular kinase lysis buffer (Cisbio) containing 1× cellular kinase blocking reagent (Cisbio). Cellular lysis was carried out at 4° C. for 2 h with constant shaking before lysate (16 μL) was transferred to white 384-well ProxiPlates™ (Perkin Elmer). Anti-total MEK1 antibody labeled with Europium cryptate donor (1 ng/well) (Cell Signaling Technologies catalog number 2352) and anti-phospho MEK1 (S298) antibody labeled with d2 acceptor (Cell Signaling Technologies catalog number 9128) (10 ng/well) were prepared in 1× detection buffer (CisBio) and added to each well of the assay plate and allowed to incubate at RT overnight. The following day the fluorescence emission from each well was measured in EnVision® (Perkin Elmer) at an excitation of 330 nm and dual emission wavelengths of 615 nm and 665 nm. The signal in each well at 665 nm was multiplied by 10,000 and divided by the signal in the same well at 615 nm to obtain a ratio. Ratio values ([665·10,000]÷615) were plotted as a function of the concentration of compound to determine IC50 values.

Sequence of human recombinant PAK1-KD protein (Q13153 270-521 limits assumed): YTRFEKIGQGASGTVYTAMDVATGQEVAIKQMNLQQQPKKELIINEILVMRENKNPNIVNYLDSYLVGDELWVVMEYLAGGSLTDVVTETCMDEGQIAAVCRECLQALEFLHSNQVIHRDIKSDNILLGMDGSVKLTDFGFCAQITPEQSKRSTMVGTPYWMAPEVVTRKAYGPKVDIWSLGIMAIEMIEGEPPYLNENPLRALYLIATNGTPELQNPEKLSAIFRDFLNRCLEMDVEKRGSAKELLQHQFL

SMILES: CCNc1ncc2cc(-c3ccc(-c4cncc(C)n4)cc3Cl)c(=O)n(C3COC4(CCNC4)C3)c2n1 (stereo not drawn) [Example I-75, 6-[2-Chloro-4-(6-methylpyrazin-2-yl)phenyl]-2-(ethylamino)-8-(1-oxa-7-azaspiro[4.4]nonan-3-yl)pyrido[2,3-d]pyrimidin-7-one]
- Ki [1]: 20.3 nM
- IC50 [2]: 197 nM

SMILES: Cc1cccc(-c2ccc(-c3cc4cnc(NCC(F)F)nc4n(CCN4CCNCC4)c3=O)c(Cl)c2)n1 [Example I-89, 6-[2-Chloro-4-(6-methyl-2-pyridyl)phenyl]-2-(2,2-difluoroethylamino)-8-(2-piperazin-1-ylethyl)pyrido[2,3-d]pyrimidin-7-one]
- Ki [1]: 7.8 nM
- IC50 [2]: 57.7 nM

SMILES: Cc1cccc(-c2ccc(-c3cc4cnc(NC5COC5)nc4n(CCOCCN)c3=O)c(C)c2)n1 [Example I-108, 8-[2-(2-aminoethoxy)ethyl]-6-[2-methyl-4-(6-methyl-2-pyridyl)phenyl]-2-(oxetan-3-ylamino)pyrido[2,3-d]pyrimidin-7-one]
- Ki [1]: 2.5 nM
- IC50 [2]: 83.5 nM

From patent US20150031674A1, “SERINE/THREONINE KINASE INHIBITORS” (GENENTECH, INC., priority 2013, published 2015)
